Experimental data published in publication PMC7117802 (ChemMedChem, 2020).
One block for each molecule: values may come before it.

Legend:
[1] = Chemical stability in 15% aqueous NaOH; format: physicochemical; conditions: 30 min, data not shown
[2] = format: in vitro ADME, mouse; conditions: 1 μM, 37 °C
[3] = Stability of DT3-F2 in microsomes over 60 min, normal phase LC-fluorescence; format: in vitro ADME, mouse; conditions: 37 °C, no NADPH, fluorescence detection
[4] = Metabolic stability in mouse liver microsomes with or without NADPH
[5] = in vitro; conditions: mouse, microsomes
[6] = Reactivity of model compound 3 with nucleophiles; format: physicochemical
[7] = ref [2]; cited from earlier work
[8] = mouse, 1 μM, pH 7.4
[9] = pH 7.4, % remaining at 30 min with NADPH
[10] = pH 7.4, % remaining at 30 min without NADPH

Stability when stirred in 15% aqueous NaOH [1]: remained intact | Decrease of compound after incubation with active mouse liver microsomes ([2]; 10 min, microsomes + buffer, no NADPH): ~ 50% | Degradation with mouse liver microsomes + NADPH, compared with microsomes alone ([2]; up to 10 min, NADPH present): More degradation | Stability in buffer (PBS) alone ([2]; up to 10 min, PBS): stable | Parent peak after incubation in mouse liver microsomes [3]: no longer detectable | Degradation in mouse liver microsomes in the presence of NADPH (in words) ([4]; with NADPH, 30 min): exhausted (below detection limit) | Degradation in mouse liver microsomes in the absence of NADPH (in words) ([4]; without NADPH, 30 min): exhausted (below detection limit)
Structure (SMILES): C/C(=C\CC/C(C)=C/CC[C@]1(C)CCc2cc(O)cc(C)c2O1)CCC=C(CF)CF [DT3-F2 (1), (R)-2-((3E,7E)-13-Fluoro-12-(fluoromethyl)-4,8-dimethyltrideca-3,7,11-trien-1-yl)-2,8-dimethylchroman-6-ol]

half-life at 1 μM ([5]; pH 7.4): 0.417 ± 0.16 h | remaining at 0.5 h, 1 μM [5, 9]: 14.5 ± 10.4% | remaining at 0.5 h, 1 μM [5, 10]: 107 ± 8.9%
Structure (SMILES): CC(C)NCC(O)COc1cccc2ccccc12 (stereo not drawn) [Propranolol]

Reaction with morpholine in HBD solvents ([6]; hydrogen-bond donor solvents, 70 °C, Figure S3): able to react | Reaction with N-acetyl cysteine (NAC) ([6]; nucleophilic sulfide NAC, Figure S2): No reaction
Structure (SMILES): C/C(=C\CS(=O)(=O)c1ccccc1)CCC=C(CF)CF [compound 3, (E)-((8-Fluoro-7-(fluoromethyl)-3-methylocta-2,6-dien-1-yl)sulfonyl) benzene]

Structure (SMILES): CC(C)=CCC/C(C)=C/CC/C(C)=C/CC[C@]1(C)CCc2cc(O)c(C)c(C)c2O1 [γ-tocotrienol]
Plasma elimination half-life [7]: short

Structure (SMILES): CC(C)=CCC/C(C)=C/CC/C(C)=C/CC[C@]1(C)CCc2cc(O)cc(C)c2O1 [δ-Tocotrienol]
remaining at 0.5 h, 1 μM [5, 9]: 63.7 ± 6.7% | remaining at 0.5 h, 1 μM [5, 10]: 100 ± 6.6% | Clin,u [8]: 5240 ± 819.7 µL/min/mg | Plasma elimination half-life [7]: short | half-life at 1 μM ([4]; mouse, microsomes, pH 7.4): 1.8 ± 0.287 h
